The target in one test is T1, human renin (Homo sapiens, UniProt P00797).
T1 sequence (P00797 67-406): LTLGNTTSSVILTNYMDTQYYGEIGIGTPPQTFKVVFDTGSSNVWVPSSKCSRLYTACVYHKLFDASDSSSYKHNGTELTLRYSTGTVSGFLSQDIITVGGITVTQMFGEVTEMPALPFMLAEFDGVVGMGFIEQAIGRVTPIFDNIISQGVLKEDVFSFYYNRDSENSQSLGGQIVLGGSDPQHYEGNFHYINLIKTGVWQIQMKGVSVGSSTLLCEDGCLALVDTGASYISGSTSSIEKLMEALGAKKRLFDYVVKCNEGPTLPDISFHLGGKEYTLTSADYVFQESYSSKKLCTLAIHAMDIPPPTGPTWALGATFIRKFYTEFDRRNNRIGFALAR
Put plainly: Human renin-sheep renin substrate reaction system in vitro (angiotensin I by radioimmunoassay). It counts as biochemical. The following applies: pH 7.4, 15 minutes, 37° C., read-out: IC50 (molar concentration). The method, then:
Human renin-sheep renin substrate reaction system in vitro
To a mixture containing 200 μl of a 125 mM pyrophosphate buffer (pH 7.4), 25 μl of a 20 mM aqueous solution of L-phenylalanyl-L-alanyl-L-prolin as an angiotensin cnverting enzyme inhibitor, 50 μl of semipurified sheep renin substrate (2000 ng angiotensin I/ml), 50 μl of dimethyl sulfoxide solution of an amino acid compound of the present invention and 150 μl of deionized water was added 25 μl of purified human renin (20-30 ng angiotensin I/ml/hr. The mixture was incubated for 15 minutes on a water bath at 37° C., and the reaction mixture was allowed to stand for 5 minutes on a water bath at 100° C. to stop the reaction. After cooling, 200 μl of the solution were taken up and the amount of angiotensin I produced by the addition of renin was determined by radiommunoassay. The inhibitory effect was calculated by the following equation.
As a control, the same procedure as above was carried out by using 50 μl of dimethyl sulfoxide alone in place of the 50 μl of dimethyl sulfoxide solution containing an amino acid compound of the present invention.

The target in test [1] is T2, renin in human high renin plasma (Homo sapiens, UniProt P00797).
T2 construct: 500 μl of human high renin plasma; from tissue; host or cells: human high renin plasma
T2 sequence (P00797 67-406): T1 sequence (P00797 67-406)
Put plainly: Renin inhibitory effect in a human high renin plasma (angiotensin I by radioimmunoassay). The test is classed as biochemical. The following applies: 60 minutes, 37° C., read-out: IC50 (molar concentration).
Experimental: A mixture of 350 μl of a 0.5 M phosphate buffer containing 14 mM EDTA 2Na and a 0.3% neomycin sulfate, which was adjusted to the pH of 7, 50 μl of a 20 mM an aqueous solution of L-phenylalanyl-L-alanyl-L-prolin as an angiotensin converting enzyme inhibitor and 100 μl of dimethyl sulfoxide solution containing an amino acid compound of the present invention was added to 500 μl of human high renin plasma, and 200 μl of the mixture was incubated at 4° C. in an ice bath, and remaining mixture (800 μl ) was incubated for 60 minutes at 37° C. in a water bath. A 200 μl sample was withdrawn from the incubated mixture, chilled immediately in an ice bath, and the amount (A) of angiotensin I produced was determined by radioimmunoassay.
Also, the amount (B) of angiotensin I produced in the incubated mixture at 4° C. in an ice bath was determined by radioimmunoassy.
As a control, the same procedure as above was carried out by using 100 μl of dimethyl sulfoxide alone in place of the 100 μl of dimethyl sulfoxide solution containing an amino acid compound of the present invention.
The renin inhibitory effect in human plasa was calculated by taking the amount of angiotensin I (A) from the amount of angiotensin I (B). The inhibotory effect was calculated by the following equation.

As for `CC(C)C[C@H](NC(=O)[C@H](Cc1c[nH]cn1)NC(=O)C(CC(=O)N1CCOCC1)Cc1cccc2ccccc12)[C@@H](O)CC(=O)OC(C)C` (stereo partly drawn) [Isopropyl N-[2-(1-naphthylmethyl)-3-(morphlinocarbonyl)propionyl]-L-histidylstatinate], at human renin, the IC50 worked out at 66 nM.

Turning to `COC(=O)C[C@H](O)[C@H](CC(C)C)NC(=O)[C@H](Cc1c[nH]cn1)NC(=O)C(CC(=O)N1CCOCC1)Cc1cccc2ccccc12` (stereo partly drawn) [Methyl N-[2-(1-naphthylmethyl)-3-(morpholinocarbonyl)propionyl]-L-histidylstatinate], the IC50 in test [1] turned out to be 150 nM.

As for `COC(=O)C(O)[C@H](CC(C)C)NC(=O)[C@H](Cc1c[nH]cn1)NC(=O)C(CC(=O)N(C)C)Cc1cccc2ccccc12` (mixture of isomers) [Methyl (2RS, 3S)-3-{N-[2-(1-naphthylmethyl)-3-(dimethylcarbamoyl)propionyl]-L-histidyl}amino-2-hydroxy-5-methylhexanoate], the results for the IC50 (on human renin; in test [1]) were 78 nM and 25 nM, respectively.
